Experimental data reported in patent US20220340685A1, “COMBINATION THERAPY WITH ENTPD2 AND CD73 ANTIBODIES” (Novartis AG, priority 2019, published 2022).

Tested on: human ENTPD2 engineered B16LM3 clone B5
Test: Human ENTPD2 engineered B16LM3 clone B5 model, combination with A2AR antagonist NIR178
Assay type: in vivo
Settings: NIR178 p.o. 4 days on and 3 days off, 50 or 200 mg/kg; antibody or isotype 10 mg/kg i.v. day 1
Description: Human ENTPD2-engineered B16LM3 clone B5 was established in female C57BL/6 mice by subcutaneous injection of 0.5×10^6 cells into the right flank of each mouse. Once tumors reached approximately 50 mm^3, mice were randomized according to tumor volume into treatment groups (n=8 per group). Mice received an intravenous (i.v.) treatment of either anti-ENTPD2 mAb1 at a final dose of 10/mg/kg or a non-specific human IgG1 isotype control 10 mg/kg on day 1 of study. NIR178 was administered per os (p.o.) for 4 days on and 3 days off, starting at the beginning of study at either 50 mg/kg or 200 mg/kg. All doses were adjusted to individual mouse body weights. The study was carried out for thirteen days post treatment initiation and tumor volumes were assessed every other day to assess efficacy.

Q: For `Nc1nc(-n2cccn2)nc(-n2cccn2)c1Br` [NIR178, 5-bromo-2,6-di-(1H-pyrazol-1-yl)pyrimidine-4-amine], which “anti-tumor efficacy” value is on record?
A: Its value is “No significant anti-tumor efficacy”.
